Laboratory results as given in patent US20220168304A1, “METHODS FOR TREATING CYSTIC FIBROSIS” (CHILDREN'S HOSPITAL MEDICAL CENTER, priority 2017, published 2022).

Columns and labels:
human duodenal organoids = test: Fluid secretion by forskolin-induced swelling (FIS) of human duodenal organoids; assay type: cell-based; settings: FIG. 3; 0.1 micromolar saracatinib; forskolin 10 μM, 120 min; FSK vs no FSK significant, p value of 0.01
Protocol: (§1) Mouse intestinal organoids were cultured as described previously (DALTON et al., “New model of cystic fibrosis transmembrane conductance regulator proposes active channel-lik ? Inf Model (2012) Vol. 52, pp. 1842-1853). Human duodenal crypt isolation and enteroid expansion was performed as described previously (<<https://www.jove.com/video/52483/establishment-human-epithelial-enteroids-colonoids-from-whole-tissue>>) with some adaptations. Briefly, fresh biopsy is rinsed in ice-cold Dulbecco's Phosphate buffered saline without Ca^2+ and Mg^2+ (DPBS, Gibco), mounted and immersed in DPBS in a silica gel coated petri-dish using minutien pins with the mucosal side facing up.
Mucosa is gently scraped with curved forceps to remove villi and debris followed by 3-4 washes with DPBS. Crypts were dissociated using 2 mM EDTA (30 min, 4° C. with gentle shaking) followed by gentle scraping of the mucosa. The crypt suspension was filtered through a 150 μm nylon mesh twice and pelleted at 50×g, 4° C. The crypt pellet was resuspended in matrigel matrix (200 to 500 crypts/50 μl matrigel per well of a 24 well plate). […]
Fluid Secretion by forskolin-induced swelling (FIS) of human duodenal organoids (A) representative images (bar=20 micrometers) and (B) quantitation of fluid secretion.

[1] = system: mouse intestinal organoids; test: Fluid secretion by forskolin-induced swelling (FIS) of mouse intestinal organoids; assay type: cell-based; settings: FIG. 4; 0.1 micromolar saracatinib; forskolin 10 μM, 30 min; FSK vs no FSK significant, p value of 0.01
Protocol: as §1
Isolation of intestinal spheres and measurement of fluid secretion were performed as described previously (MOON et al., “Compartmentalized accumulation of cAMP near complexes of multidrug resistance protein 4 (MRP4) and cystic fibrosis transmembrane conductance regulator (CFTR) contributes to drug-induced diarrhea.” J Biol Chem (2015) Vol. 290, pp. 11246-11257). Day 1-4 intestinal organoids were treated with 0.1-10 μM of the test compound for 24 h before stimulation of CFTR function using forskolin (10 μM). […]
Fluid Secretion by forskolin-induced swelling (FIS) of mouse intestinal organoids (A) representative images (bar=20 micrometers) and (B) quantitation of fluid secretion.

CN1CCN(CCOc2cc(OC3CCOCC3)c3c(Nc4c(Cl)ccc5c4OCO5)ncnc3c2)CC1 [saracatinib, N-(5-chloro-1,3-benzodioxol-4-yl)-7-[2-(4-methyl-1-piperazinyl)ethoxy]-5-[(tetrahydro-2H-pyran-4-yl)oxy]-4-quinazolinamine]
Fluid secretion (forskolin-induced swelling, FIS) (human duodenal organoids): fluid secretion occurs when saracatinib is added
Fluid secretion (forskolin-induced swelling, FIS) [1]: fluid secretion occurs when saracatinib is added
